In general, melting point refers to the temperature, or range, at which the solid turns liquid.

Each structure is given as a SMILES string.

Compound `C=CC(O)(C(CCCCOc1ccccc1)n1cncn1)C(C)(C)C` (stereo not given) gave a melting point of 66 to 69 °C.

Compound `Cc1ncoc1C(O)c1ccccc1` (stereo not given) had a melting point of 79 to 81 °C.

Compound `CN(c1ccc(O)cc1)c1cc2ccc(Cl)cc2cn1` registered a melting point of 140 °C.

`C[C@H](NC(=O)Cc1cc(F)cc(F)c1)C(=O)N[C@@H]1C(=O)Nc2ccccc2S[C@@H]1c1cc(Br)cs1`: the melting point fell in the range of 145 to 155 °C.

As for `N#Cc1ccc(N(Cc2ccccc2)n2cnnc2)cc1-c1ccc(O)cc1`, the melting point was in the range of 229 to 230 °C.

Consider `COc1ccc(N2CCN(c3c(C)c(C)c4c(c3C)C(c3cccs3)C(C)(C)O4)CC2)cc1` (stereo not given), for which the melting point lay in the range of 139 to 141 °C.

`CCCCCCCCCCCCCCOc1cccc(C(=O)N(Cc2ccccn2)C(C)=O)c1` displayed a melting point of 66 to 67 °C.

Turning to `CN(C)Cc1ccc(CSCCNc2nc(N)n[nH]2)o1`, the melting point was 76 to 78.5 °C.

For `COc1ccc2c(Cc3ccco3)nnc(N3CCCC3)c2c1`, the melting point lay within 148 to 149 °C.

In turn, `COC(=O)c1ccc(NCc2cccc(F)c2)cn1` returned a melting point of 89 to 92 °C.

As for `CCC(=O)Oc1cc(-c2nc3cc(F)ccc3s2)ccc1OC`, the melting point turned out to be 150 °C.

`CCOc1cc(OC)cc(OP(=O)(O)O)c1C(=O)C=Cc1ccc(OC)cc1` came in with a melting point of 72 to 75 °C.

The compound `CNC(=O)/C(=N/OC)c1ccccc1COc1ccccc1C` displayed a melting point of 109 to 112 °C.

Consider `Cc1cc(COc2ccc(S(=O)(=O)NC[C@@H](C(=O)NO)N3CCN(Cc4ccccc4)CC3)cc2)c2ccccc2n1`, for which the melting point came out at 188 °C.

In turn, `CCC(O)(Cn1cncn1)C(C)(C)Cc1ccc(Cl)cc1` (stereo not given) came in with a melting point of 124 to 125 °C.

Regarding `CCc1nc2c(N)nc(C)c(C)c2n1Cc1cc(-c2ccc(F)cc2)no1`, the melting point fell in the range of 255 to 256 °C.

Regarding `CCCCCc1ccc(CC(=O)c2ccc(O)cc2)cc1`, the melting point worked out at 112 °C.

The compound `O=C(O)c1ccc(C#Cc2ccc(OCC(O)CO)c(C34CC5CC(CC(C5)C3)C4)c2)cc1` (stereo not given) showed a melting point of 300 to 302 °C.

Compound `CN(CCc1ccccc1)C(=O)Cn1cc(C=C(C(=O)O)C(C)(C)C)c2cc([N+](=O)[O-])ccc21` had a melting point of 140 to 143 °C.

As for `CCOC(=O)N=C(N)c1ccc(OCc2cccc(COc3ccc(C(C)(C)c4ccccc4)cc3)c2)cc1`, the melting point is 99 °C.

In the case of `CCCCCCCCCCC(O)COc1ccc(N2CCS(=O)(=O)CC2)cc1` (stereo not given), the melting point was 84 °C.

In turn, `COC(=O)C1=C(C)NC(C)=C(C(C)=O)C1c1ccccc1Cl` (stereo not given) displayed a melting point of 183 to 184 °C.

In turn, `CCc1c(C)n(C)c2ccc(NC(=O)Nc3ccccn3)cc12` came in with a melting point of 120 to 123 °C.

Regarding `FC(F)(F)c1ccc(Cl)cc1CN1CCNc2ncc(I)cc21`, the melting point was 189 to 191 °C.

As for `C#Cc1ccc(Nc2c(C(=O)NOCCO)ccc(F)c2F)c(Cl)c1`, the melting point fell in the range of 155 to 157 °C.

As to `Cc1oc(-c2ccc(F)cc2)cc1COc1cccc(CSC(C)(C)C(=O)O)c1`, the melting point was 134 to 135 °C.

`CCCOc1ccc(S(=O)(=O)N2CCN(CC)CC2)cc1-c1nc2cc(N)c(N)cc2c(=O)[nH]1`: the melting point lay within 183 to 186 °C.

Compound `CN(C1CCCOc2ccccc21)S(C)(=O)=O` (stereo not given) showed a melting point of 143 to 145 °C.

`COc1cc2nc(N3CCN(c4ccnc(Cl)n4)CC3)nc(N)c2cc1OC` registered a melting point of 266 °C.

`O=C1C[C@H]2CCCC[C@]23c2cccn2CCN13` (relative stereo): the melting point fell in the range of 122 to 123 °C.

For the compound `COC(=O)c1cccc(CCN(C)CCCC(C(=O)OC)(c2ccc(OC)c(OC)c2)C(C)C)c1` (stereo not given), the melting point was in the range of 87 to 90 °C.

`COc1ccc2c(c1)Sc1ccc(SC)cc1C(Cl)C2` (stereo not given) showed a melting point of 120 to 123 °C.

Regarding `COC(=O)c1nc(C)c(-c2ccncc2C)s1`, the melting point lay within 95.5 to 96.3 °C.

With `Cc1ccc2c([N+](=O)[O-])cc([N+](=O)[O-])c(O)c2n1`, the melting point is 295 to 300 °C.

In turn, `NSc1nccnc1Cl` displayed a melting point of 113 to 114 °C.

The values above are taken from a melting point compilation (Tetko et al.; mined from patent text by program, amines drawn as free bases though some values may be those of a salt).
